pIC50: −log10 of the molar value.
Columns and labels:
Staphylococcus aureus [1] = assay: Antimicrobial activity against methicillin-resistant Staphylococcus aureus by NCCLS method; assay type: functional
Escherichia coli = assay: Inhibition of protein translation in Escherichia coli S30 cell extract; assay type: functional
[2] = Inhibition of protein translation in rabbit reticulocytes; assay type: functional, cell-based, Oryctolagus cuniculus
[3] = Selectivity index, ratio of IC50 for protein translation inhibition in Escherichia coli S30 cell extract to IC50 for protein translation inhibition in rabbit reticulocytes; assay type: functional
Staphylococcus aureus [4] = assay: Antimicrobial activity against methicillin-resistant Staphylococcus aureus in iv dosed mouse septicemia model; assay type: functional; conditions: read-out: PD50
Staphylococcus aureus [5] = assay: Antimicrobial activity against methicillin-resistant Staphylococcus aureus in mouse septicemia model; assay type: functional

For `CN(C(=O)C[C@@H](N)CCCCN)C1CN=C(NC(N)=O)NC1=O` (mixture of isomers), the MIC (Staphylococcus aureus [1]) was 64 µg/mL, the pIC50 (Escherichia coli) was 5.19 and the pIC50 [2] was 4.40. The Selectivity ratio [3] was 6.
For `CN(C(=O)C[C@@H](N)CCCN)C1CN=C(NC(N)=O)NC1=O` (mixture of isomers), the MIC (Staphylococcus aureus [1]) was 64 µg/mL, the pIC50 (Escherichia coli) was 5.05 and the pIC50 [2] was > 5.30. For the same molecule, the Selectivity ratio [3] was <0.6.
With `CN(C(=O)C[C@@H](N)CCCN=C(N)N)C1CN=C(NC(N)=O)NC1=O` (mixture of isomers) the MIC (Staphylococcus aureus [1]) was 8 µg/mL, the pIC50 [2] was 6.70 and the Selectivity ratio [3] was 0.67. The ED50 (Staphylococcus aureus [4]) was 0.7 mg/kg and the MIC (Staphylococcus aureus [5]) was 12.8 µg/mL.
For `CC/N=C(/N)NCCC[C@H](N)CC(=O)N(C)C1CN=C(NC(N)=O)NC1=O` (mixture of isomers), the MIC (Staphylococcus aureus [1]) was > 256 µg/mL, the pIC50 (Escherichia coli) was 5.62 and the pIC50 [2] was 4.56.
With `CCN(C(=O)C[C@@H](N)CCCNC(=N)N)C1CNC(NC(N)=O)=NC1=O` (mixture of isomers) the MIC (Staphylococcus aureus [1]) was 256 µg/mL, the pIC50 (Escherichia coli) was 5.74 and the pIC50 [2] was 4.35. For the same molecule, the Selectivity ratio [3] was 25.
In the case of `CC(=O)NC1=NC(=O)C(N(C)C(=O)C[C@@H](N)CCCNC(=N)N)CN1` (mixture of isomers), the MIC (Staphylococcus aureus [1]) was 8 µg/mL, the pIC50 (Escherichia coli) was 7.00 and the pIC50 [2] was 6.70. It also gave a Selectivity ratio [3] of 2.
With `CCC(=O)NC1=NC(=O)C(N(C)C(=O)C[C@@H](N)CCCNC(=N)N)CN1` (mixture of isomers) the MIC (Staphylococcus aureus [1]) was 16 µg/mL, the pIC50 (Escherichia coli) was > 5.30 and the pIC50 [2] was > 5.30.
Molecule `CC(=O)N(C)C1=NC(=O)C(N(C)C(=O)C[C@@H](N)CCCNC(=N)N)CN1` (mixture of isomers) has an MIC (Staphylococcus aureus [1]) of 64 µg/mL, a pIC50 (Escherichia coli) of 5.17 and a pIC50 [2] of 4.68. For the same molecule, the Selectivity ratio [3] was 3.1.
For `CN(C)C(=O)NC1=NC(=O)C(N(C)C(=O)C[C@@H](N)CCCNC(=N)N)CN1` (mixture of isomers), the MIC (Staphylococcus aureus [1]) was > 500 µg/mL, the pIC50 (Escherichia coli) was 5.06 and the pIC50 [2] was 4.71. It also gave a Selectivity ratio [3] of 3.4.
In the case of `CN(C(=O)C[C@@H](N)CCCNC(=N)N)C1CNC(N2CCNC2=O)=NC1=O` (mixture of isomers), the MIC (Staphylococcus aureus [1]) was > 500 µg/mL, the pIC50 (Escherichia coli) was < 3.30 and the pIC50 [2] was < 3.30.
With `CN1CC(N(C)C(=O)C[C@@H](N)CCCNC(=N)N)C(=O)N=C1NC(N)=O` (mixture of isomers) the MIC (Staphylococcus aureus [1]) was > 500 µg/mL, the pIC50 (Escherichia coli) was < 3.30 and the pIC50 [2] was < 3.30.
In the case of `CN1C(=O)C(N(C)C(=O)C[C@@H](N)CCCNC(=N)N)CN=C1NC(N)=O` (mixture of isomers), the MIC (Staphylococcus aureus [1]) was > 500 µg/mL, the pIC50 (Escherichia coli) was < 3.30 and the pIC50 [2] was < 3.30.
For `CN(C(=O)C[C@@H](N)CCCNC(=N)N)C1CN=C(NC(N)=O)NC1` (mixture of isomers), the MIC (Staphylococcus aureus [1]) was > 256 µg/mL and the pIC50 (Escherichia coli) was 3.92.
With `CN(C(=O)C[C@@H](N)CCCNC(=N)N)c1ccc(NC(N)=O)[nH]c1=O` (mixture of isomers) the MIC (Staphylococcus aureus [1]) was > 500 µg/mL, the pIC50 (Escherichia coli) was < 3.30 and the pIC50 [2] was 4.25.
For `CC(=O)NC1=CC(=O)C(N(C)C(=O)C[C@@H](N)CCCNC(=N)N)CN1` (mixture of isomers), the MIC (Staphylococcus aureus [1]) was > 500 µg/mL, the pIC50 (Escherichia coli) was < 3.30 and the pIC50 [2] was < 3.30.
For `CN(CC1CNC(NC(N)=O)=NC1=O)C(=O)C[C@@H](N)CCCNC(=N)N` (mixture of isomers), the MIC (Staphylococcus aureus [1]) was > 500 µg/mL, the pIC50 (Escherichia coli) was 4.29 and the pIC50 [2] was 4.25. It also gave a Selectivity ratio [3] of 1.1.
Molecule `CN(C(=O)C[C@@H](N)CCCCCN)C1CNC(NC(N)=O)=NC1=O` (mixture of isomers) has an MIC (Staphylococcus aureus [1]) of 16 µg/mL, a pIC50 (Escherichia coli) of 5.30 and a pIC50 [2] of 5.00. For the same molecule, the Selectivity ratio [3] was 2.
Work on `CN[C@@H](CCCCN)CC(=O)N(C)C1CNC(NC(N)=O)=NC1=O` (mixture of isomers) yielded an MIC (Staphylococcus aureus [1]) of 128 µg/mL, a pIC50 (Escherichia coli) of 4.60 and a pIC50 [2] of 5.30. It also gave a Selectivity ratio [3] of 0.2.

Reference: ChEMBL document CHEMBL1681741, “SAR studies on dihydropyrimidinone antibiotics” (Bioorg Med Chem Lett, 2011)
